The results in this text go back to patent US7179825B2, “Retinoic acid mimetic anilides” (Janssen Pharmaceutica N.V., priority 1997, dated 2007).

Broadly, the IC50 is the concentration needed to halve the response being measured.

Bounds are passed on as bounds.

Assay [1] concerns metabolism of retinoic acid in human breast cancer cells. Put plainly: Inhibition of retinoic acid (RA) metabolism (Example C.1). The class given is cell-based. The following applies: MCF-7 human breast cancer cells, 3H-RA as substrate; concentration needed to reduce the amount of metabolites to 50% of the control. Put shortly: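 MCF-7 cells, pre-stimulated with RA the day before, incubated with ³H-RA substrate and test compound in 1% DMSO. Polar ³H-metabolites separated from unmetabolized RA and counted by scintillation. IC50 is the concentration cutting metabolite formation to 50% of control, with blank run alongside.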

Assay [2] has as its system Ovariectomized rats. Kind of assay: Vaginal keratinization test on ovariectomized rats (Example C.2). The class given is in vivo. Conditions: estradiol undecylate induced keratinization, per os once daily on days 1-3, active dose = 50% of rats show complete suppression. Put shortly:
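Ovariectomized rats given s.c. estradiol undecylate (100 μg per 100 g body weight in sesame oil), then oral compound once daily on days 1-3 (vehicle PEG 200). Vaginas assessed histologically one day after last dose; lowest active dose (mg/kg) is the dose giving complete keratinization suppression in 50% of rats.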

`C/C(=C\c1ccccc1)C(=O)Nc1ccc(C(C(C)N(C)C)n2cncn2)cc1` (single isomer, unassigned) [Compound 332]: the 50% inhibitory concentration (IC50) in assay [1] worked out at 1.5 nM. In assay [2], the “LAD (lowest active dose)” value is reported as more than 2.50 mg/kg.

For `CC(C(c1ccc(NC(=O)Cc2ccc3c(c2)OCCO3)cc1)n1ccnc1)N(C)C` (single isomer, unassigned) [Compound 339], the IC50 in assay [1] came to 1.23 nM. Also, the “LAD (lowest active dose)” value in assay [2] was more than 2.50 mg/kg.

As to `CCOc1ccc(CCC(=O)Nc2ccc(C(C(C)N(C)C)n3ccnc3)cc2)cc1` (single isomer, unassigned) [Compound 346], the half-maximal inhibitory concentration (IC50) in assay [1] was found to be 2.04 nM. Further, the “LAD (lowest active dose)” value in assay [2] is listed as more than 5.00 mg/kg.

On to `COc1ccccc1OCC(=O)Nc1ccc(C(C(C)N(C)C)n2ccnc2)cc1` (single isomer, unassigned) [Compound 351], for which the IC50 in assay [1] is 5.69 nM. The “LAD (lowest active dose)” value in assay [2] is more than 5.00 mg/kg.

Take `CC(C(c1ccc(NC(=O)CN2CCN(C)CC2)cc1)n1ccnc1)N(C)C` (single isomer, unassigned) [Compound 352]: the half-inhibitory concentration (IC50) in assay [1] stood at 0.257 nM. Besides, the “LAD (lowest active dose)” value in assay [2] was more than 5.00 mg/kg.

As for `CC(C(c1ccc(NC(=O)CN2CCN(C)CC2)cc1)n1ccnc1)N(C)C` (single isomer, unassigned) [Compound 353], the half-inhibitory concentration (IC50) in assay [1] came to 1.97 nM. In addition, the “LAD (lowest active dose)” value in assay [2] was more than 5.00 mg/kg.

For the compound `CC(C(c1ccc(NC(=O)Cc2ccc(Cl)cc2)cc1)n1ccnc1)N1CCCCC1` (single isomer, unassigned) [Compound 366], the IC50 in assay [1] amounted to 3.05 nM. For the same compound, in assay [2], the “LAD (lowest active dose)” value was more than 10.00 mg/kg.

For the compound `CC(C(c1ccc(NC(=O)Cc2ccc(Cl)cc2)cc1)n1ccnc1)N(C)C` (single isomer, unassigned) [Compound 367], the half-maximal inhibitory concentration (IC50) in assay [1] was 1.25 nM. In assay [2], the “LAD (lowest active dose)” value is on record as 2.50 mg/kg.

In the case of `CC(C(c1ccc(NC(=O)Cc2ccc(Cl)cc2)cc1)n1ccnc1)N(C)C` (single isomer, unassigned) [Compound 368], the IC50 in assay [1] turned out to be 0.583 nM. For the same compound, in assay [2], the “LAD (lowest active dose)” value is listed as 2.50 mg/kg.

As for `CC(Sc1ccccc1)C(c1ccc(NC(=O)Cc2ccc(Cl)cc2)cc1)n1ccnc1` (single isomer, unassigned) [Compound 369], the half-inhibitory concentration (IC50) in assay [1] was 82.2 nM. In addition, in assay [2], the “LAD (lowest active dose)” value amounted to 10.00 mg/kg.

Regarding `CC(Oc1ccccc1)C(c1ccc(NC(=O)Cc2ccc(Cl)cc2)cc1)n1ccnc1` (single isomer, unassigned) [Compound 370], the 50% inhibitory concentration (IC50) in assay [1] came out at 83.4 nM. The “LAD (lowest active dose)” value in assay [2] is more than 10.00 mg/kg.

Regarding `CC(Sc1ccccc1)C(c1ccc(NC(=O)Cc2ccc(Cl)cc2)cc1)n1ccnc1` (single isomer, unassigned) [Compound 376], the IC50 in assay [1] is less than 0.1 nM. Besides, the “LAD (lowest active dose)” value in assay [2] is 2.50 mg/kg.

Regarding `CCN(CC)C(C)C(c1ccc(NC(=O)Cc2ccc(OC)c(OC)c2)cc1)n1ccnc1` (single isomer, unassigned) [Compound 383], in assay [1], the IC50 was found to be 0.729 nM. The “LAD (lowest active dose)” value in assay [2] is reported as more than 2.50 mg/kg.

On to `CCCCCC(C)C(c1ccc(NC(=O)Cc2ccc(OC)c(OC)c2)cc1)n1ccnc1` (single isomer, unassigned) [Compound 385], for which the IC50 in assay [1] was found to be 6.75 nM. In assay [2], the “LAD (lowest active dose)” value is recorded as more than 2.50 mg/kg.

`COc1ccc(CC(=O)Nc2ccc(C(C(C)CN3CCCCC3)n3ccnc3)cc2)cc1OC` (single isomer, unassigned) [Compound 389]: the IC50 in assay [1] worked out at 0.0567 nM. Further, the “LAD (lowest active dose)” value in assay [2] is reported as more than 2.50 mg/kg.

Take `CCC(C(c1ccc(NC(=O)Cc2ccc(OC)c(OC)c2)cc1)n1ccnc1)N(C)C` (single isomer, unassigned) [Compound 393]: the IC50 in assay [1] came to 0.955 nM. Also, in assay [2], the “LAD (lowest active dose)” value stood at 5.00 mg/kg.

For `COCC(C)C(c1ccc(NC(=O)Cc2ccc(OC)c(OC)c2)cc1)n1ccnc1` (single isomer, unassigned) [Compound 405], the IC50 in assay [1] came out at 3.68 nM. For the same compound, in assay [2], the “LAD (lowest active dose)” value was 5.00 mg/kg.

As for `COc1ccc(CC(=O)Nc2ccc(C(C(C)N3CCN(C)CC3)n3ccnc3)cc2)cc1OC.O` (single isomer, unassigned) [Compound 412], the IC50 in assay [1] stood at 3.99 nM. In addition, the “LAD (lowest active dose)” value in assay [2] is more than 2.50 mg/kg.

Turning to `CCCN(C)C(C)C(c1ccc(NC(=O)Cc2ccc(OC)c(OC)c2)cc1)n1ccnc1` (single isomer, unassigned) [Compound 413], the IC50 in assay [1] worked out at 5.27 nM. Also, in assay [2], the “LAD (lowest active dose)” value was found to be 5.00 mg/kg.

On to `CCN(C)C(C)C(c1ccc(NC(=O)Cc2ccc(OC)c(OC)c2)cc1)n1ccnc1` (single isomer, unassigned) [Compound 416], for which the IC50 in assay [1] turned out to be 0.367 nM. Further, the “LAD (lowest active dose)” value in assay [2] is given as more than 5.00 mg/kg.

For `C/C(=C\c1ccccc1)C(=O)Nc1ccc(C(C(C)C)n2ccnc2)cc1` (single isomer, unassigned) [Compound 458], the IC50 in assay [1] is 3.22 nM. In assay [2], the “LAD (lowest active dose)” value was 5.00 mg/kg.

As to `CC(=Cc1ccccc1)C(=O)Nc1ccc(C(C(C)C)n2ccnc2)cc1` (single isomer, unassigned) [Compound 459], the IC50 in assay [1] was 17.7 nM. In addition, the “LAD (lowest active dose)” value in assay [2] amounted to 20.00 mg/kg.

For the compound `CCCC(C)C(c1ccc(NC(=O)/C(C)=C/c2ccccc2)cc1)n1ccnc1` (single isomer, unassigned) [Compound 482], in assay [1], the IC50 was determined as 1.95 nM. Further, the “LAD (lowest active dose)” value in assay [2] was found to be 10.00 mg/kg.

`CC(=Cc1ccccc1)C(=O)Nc1ccc(C(C(C)Sc2ccccc2)n2ccnc2)cc1` (single isomer, unassigned) [Compound 483]: in assay [1], the IC50 stood at 19.8 nM. In addition, in assay [2], the “LAD (lowest active dose)” value is given as more than 5.00 mg/kg.

Regarding `CC(=Cc1ccccc1)C(=O)Nc1ccc(C(C(C)Sc2ccccc2)n2ccnc2)cc1` (single isomer, unassigned) [Compound 484], in assay [1], the IC50 is 3.43 nM. For the same compound, the “LAD (lowest active dose)” value in assay [2] is on record as more than 5.00 mg/kg.

For `CC(=Cc1ccccc1)C(=O)Nc1ccc(C(C(C)c2ccccc2)n2ccnc2)cc1` (single isomer, unassigned) [Compound 489], the half-inhibitory concentration (IC50) in assay [1] is more than 100 nM. The “LAD (lowest active dose)” value in assay [2] came out at 2.50 mg/kg.

`C/C(=C\c1ccccc1)C(=O)Nc1ccc(C(C(C)c2ccccc2)n2ccnc2)cc1` (single isomer, unassigned) [Compound 490]: the IC50 in assay [1] is more than 100 nM. Also, in assay [2], the “LAD (lowest active dose)” value amounted to 2.50 mg/kg.

Consider `CCCCCC(CC)C(c1ccc(NC(=O)C(C)=Cc2ccccc2)cc1)n1ccnc1` (single isomer, unassigned) [Compound 492], for which the half-inhibitory concentration (IC50) in assay [1] was 4.07 nM. For the same compound, the “LAD (lowest active dose)” value in assay [2] was more than 2.50 mg/kg.

As to `CCC(C(c1ccc(NC(C)=O)cc1)n1ccnc1)N(C)C` (single isomer, unassigned) [Compound 558], in assay [1], the 50% inhibitory concentration (IC50) was found to be 1.32 nM. Moreover, the “LAD (lowest active dose)” value in assay [2] is more than 5.00 mg/kg.

Regarding `CCC(C(c1ccc(NC(C)=O)cc1)n1cncn1)N(C)C` (single isomer, unassigned) [Compound 645], the 50% inhibitory concentration (IC50) in assay [1] turned out to be 8.02 nM. Also, the “LAD (lowest active dose)” value in assay [2] is more than 5.00 mg/kg.

For the compound `CCC(C(c1ccc(NC(=O)Cc2ccc(OC)c(OC)c2)cc1)n1cncn1)N(C)C` (single isomer, unassigned) [Compound 646], in assay [1], the concentration for half-maximal inhibition (IC50) was 3.07 nM. Also, the “LAD (lowest active dose)” value in assay [2] is 5.00 mg/kg.

In the case of `CCN(CC)C(C)C(c1ccc(NC(=O)Cc2ccc(OC)c(OC)c2)cc1)n1cncn1` (single isomer, unassigned) [Compound 649], the half-inhibitory concentration (IC50) in assay [1] was determined as 7.32 nM. Besides, in assay [2], the “LAD (lowest active dose)” value came to 5.00 mg/kg.

On to `CCC(CC)C(c1ccc(NC(=O)Cc2ccc(C)c(OC)c2)cc1)n1cncn1` (single isomer, unassigned) [Compound 782], for which, in assay [1], the IC50 came to 1.26 nM. Moreover, the “LAD (lowest active dose)” value in assay [2] is on record as 2.50 mg/kg.

In the case of `CCC(CC)C(c1ccc(NC(=O)Cc2ccc(C)c(OC)c2)cc1)n1cncn1` (single isomer, unassigned) [Compound 783], the IC50 in assay [1] amounted to 39.8 nM. The “LAD (lowest active dose)” value in assay [2] is recorded as 5.00 mg/kg.

Take `CCC(CC)C(c1ccc(NC(=O)C(O)c2ccc(Cl)cc2)cc1)n1cncn1` (centres unmarked) [Compound 4]: the IC50 in assay [1] worked out at 2.11 nM. Further, the “LAD (lowest active dose)” value in assay [2] was 0.60 mg/kg.

As for `CCC(CC)C(c1ccc(NC(=O)CCCc2ccc(OC)c(OC)c2)cc1)n1cncn1` (centres unmarked) [Compound 8], the IC50 in assay [1] worked out at 0.0937 nM. Besides, the “LAD (lowest active dose)” value in assay [2] is more than 2.50 mg/kg.

Take `CCC(CC)C(c1ccc(NC(=O)Cc2ccc3nc(N)sc3c2)cc1)n1cncn1` (centres unmarked) [Compound 13]: the IC50 in assay [1] was found to be 0.0357 nM. Also, in assay [2], the “LAD (lowest active dose)” value was more than 2.50 mg/kg.

Regarding `CCC(CC)C(c1ccc(NC(=O)C2CCc3ccccc3O2)cc1)n1ccnc1` (centres unmarked) [Compound 29], the IC50 in assay [1] was 8.12 nM. Further, the “LAD (lowest active dose)” value in assay [2] is 5.00 mg/kg.

Take `CCC(CC)C(c1ccc(NC(=O)C2Oc3ccccc3O2)cc1)n1ccnc1` (centres unmarked) [Compound 34]: the half-inhibitory concentration (IC50) in assay [1] turned out to be 1.03 nM. Besides, the “LAD (lowest active dose)” value in assay [2] was determined as 2.50 mg/kg.

On to `CCC(CC)C(c1ccc(NC(=O)Cc2ccc(-c3ccccc3)cc2)cc1)n1ccnc1` (centres unmarked) [Compound 41], for which the half-inhibitory concentration (IC50) in assay [1] is 1.98 nM. Further, the “LAD (lowest active dose)” value in assay [2] is given as 2.50 mg/kg.

As to `CCC(CC)C(c1ccc(NC(=O)C(SC)c2ccccc2)cc1)n1ccnc1` (centres unmarked) [Compound 50], in assay [1], the IC50 was 7.44 nM. The “LAD (lowest active dose)” value in assay [2] amounted to 2.50 mg/kg.

In the case of `CCC(CC)C(c1ccc(NC(=O)C(O)c2ccc(OC)c(OC)c2)cc1)n1ccnc1` (centres unmarked) [Compound 56], the concentration for half-maximal inhibition (IC50) in assay [1] turned out to be 0.0251 nM. Also, in assay [2], the “LAD (lowest active dose)” value is listed as more than 5.00 mg/kg.

As for `CCC(CC)C(c1ccc(NC(=O)Cc2ccc(OCc3ccncc3)cc2)cc1)n1ccnc1` (centres unmarked) [Compound 127], the half-inhibitory concentration (IC50) in assay [1] is 0.0285 nM. In assay [2], the “LAD (lowest active dose)” value is more than 2.50 mg/kg.
